Assays:
Experiment in all cases: Test C pre-/postemergence greenhouse test
Assay type in all cases: in vivo
Settings in all cases: scale 0 to 100
[1] = test system: barnyardgrass (Echinochloa crus-galli)
Excerpt: (§1) Seeds of plant species selected from blackgrass (Alopecurus myosuroides), ryegrass, Italian (Lolium multiflorum), wheat, winter (winter wheat, Triticum aestivum), galium (catchweed bedstraw, Galium aparine), corn (Zea mays), crabgrass, large (Digitaria sanguinalis), foxtail, giant (Setaria faberii), johnsongrass (Sorghum halepense), lambsquarters (Chenopodium album), morningglory (Ipomoea coccinea), nutsedge, yellow (Cyperus esculentus), pigweed (Amaranthus retroflexus), ragweed (common ragweed, Ambrosia elatior), soybean (Glycine max), barnyardgrass (Echinochloa crus-galli), oilseed rape (Brassica napus), waterhemp (common waterhemp, Amaranthus rudis), pigweed, palmer (Amaranthus palmeri), kochia (Kochia scoparia), oat, wild (Avena fatua), surinam grass (Brachiaria decumbens), windgrass (Apera spica-venti), poinsettia, wild (Euphorbia heterophylla) and velvetleaf (Abutilon theophrasti) were planted into a silt loam soil and treated preemergence with test chemicals formulated in a non-phytotoxic solvent mixture which included a surfactant.
(§2) At the same time, plants selected from these crop and weed species and also chickweed (common chickweed, Stellaria media), buckwheat, wild (Polygonum convolvulus), mustard, wild (Sinapis arvensis), field poppy (Papaver rhoeas), field violet (Viola arvensis), nightshade (eastern black nightshade, Solanum ptycanthum), speedwell (bird's-eye speedwell, Veronica persica), horseweed (Conyza canadensis), cutleaf geranium (Geranium dissectum), and Canada thistle (Cirsium arvense) were planted in pots containing Redi-Earth® planting medium (Scotts Company, 14111 Scottslawn Road, Marysville, Ohio 43041) comprising spaghnum peat moss, vermiculite, wetting agent and starter nutrients and treated with postemergence applications of test chemicals formulated in the same manner. Plants ranged in height from 2 to 18 cm (1- to 4-leaf stage) for postemergence treatments. Treated plants and controls were maintained in a greenhouse for 13 to 21 d, after which time all species were compared to controls and visually evaluated. Plant response ratings, summarized in Table C-1 (postemergence) and C-2 (preemergence), are based on a scale of 0 to 100 where 0 is no effect and 100 is complete control. A dash (-) response means no test result.

[2] = test system: blackgrass (Alopecurus myosuroides)
Excerpt: as §1, §2

[3] = test system: corn (Zea mays)
Excerpt: as §1, §2

[4] = test system: crabgrass, large (Digitaria sanguinalis)
Excerpt: as §1, §2

[5] = test system: galium (catchweed bedstraw, Galium aparine)
Excerpt: as §1, §2

[6] = test system: johnsongrass (Sorghum halepense)
Excerpt: as §1, §2

[7] = test system: lambsquarters (Chenopodium album)
Excerpt: as §1, §2

[8] = test system: morningglory (Ipomoea coccinea)
Excerpt: as §1, §2

[9] = test system: oilseed rape (Brassica napus)
Excerpt: as §1, §2

[10] = test system: ragweed (common ragweed, Ambrosia elatior)
Excerpt: as §1, §2

[11] = test system: soybean (Glycine max)
Excerpt: as §1, §2

Question: How did the “Plant response rating, Barnyardgrass” value ([1]; Postemergence, 16 g ai/ha) turn out when `Cc1ccc2ccc(C)c(-c3c(O)c(Cl)nn(C)c3=O)c2c1` [Cpd. No. 20, 6-chloro-4-(2,7-dimethyl-1-naphthalenyl)-5-hydroxy-2-methyl-3(2H)-pyridazinone] was run?
Answer: 55

Question: What about the “Plant response rating, Barnyardgrass” value ([1]; Postemergence, 31 g ai/ha) of the same compound?
Answer: 75

Question: What about the “Plant response rating, Barnyardgrass” value ([1]; Postemergence, 62 g ai/ha) of the same compound?
Answer: 75

Question: And the “Plant response rating, Barnyardgrass” value ([1]; Postemergence, 125 g ai/ha)?
Answer: 85

Question: What about the “Plant response rating, Barnyardgrass” value ([1]; Preemergence, 31 g ai/ha) of the same compound?
Answer: 85

Question: And the “Plant response rating, Barnyardgrass” value ([1]; Preemergence, 61 g ai/ha)?
Answer: 70

Question: And the “Plant response rating, Barnyardgrass” value ([1]; Preemergence, 62 g ai/ha)?
Answer: 95

Question: What about the “Plant response rating, Barnyardgrass” value ([1]; Preemergence, 125 g ai/ha) of the same compound?
Answer: 100

Question: What about the “Plant response rating, Blackgrass” value ([2]; Postemergence, 16 g ai/ha) of the same compound?
Answer: 20

Question: And the “Plant response rating, Blackgrass” value ([2]; Postemergence, 31 g ai/ha)?
Answer: 30

Question: And the “Plant response rating, Blackgrass” value ([2]; Postemergence, 62 g ai/ha)?
Answer: 40

Question: And the “Plant response rating, Blackgrass” value ([2]; Postemergence, 125 g ai/ha)?
Answer: 45

Question: What about the “Plant response rating, Blackgrass” value ([2]; Preemergence, 31 g ai/ha) of the same compound?
Answer: 85

Question: And the “Plant response rating, Blackgrass” value ([2]; Preemergence, 61 g ai/ha)?
Answer: 20

Question: And the “Plant response rating, Blackgrass” value ([2]; Preemergence, 62 g ai/ha)?
Answer: 85

Question: What about the “Plant response rating, Blackgrass” value ([2]; Preemergence, 125 g ai/ha) of the same compound?
Answer: 90

Question: What about the “Plant response rating, Corn” value ([3]; Postemergence, 16 g ai/ha) of the same compound?
Answer: 0

Question: What about the “Plant response rating, Corn” value ([3]; Postemergence, 31 g ai/ha) of the same compound?
Answer: 5

Question: What about the “Plant response rating, Corn” value ([3]; Postemergence, 62 g ai/ha) of the same compound?
Answer: 5

Question: What about the “Plant response rating, Corn” value ([3]; Postemergence, 125 g ai/ha) of the same compound?
Answer: 20

Question: And the “Plant response rating, Corn” value ([3]; Preemergence, 31 g ai/ha)?
Answer: 0

Question: And the “Plant response rating, Corn” value ([3]; Preemergence, 61 g ai/ha)?
Answer: 0

Question: And the “Plant response rating, Corn” value ([3]; Preemergence, 62 g ai/ha)?
Answer: 5

Question: What about the “Plant response rating, Corn” value ([3]; Preemergence, 125 g ai/ha) of the same compound?
Answer: 35

Question: And the “Plant response rating, Crabgrass, Large” value ([4]; Postemergence, 16 g ai/ha)?
Answer: 40

Question: And the “Plant response rating, Crabgrass, Large” value ([4]; Postemergence, 31 g ai/ha)?
Answer: 40

Question: And the “Plant response rating, Crabgrass, Large” value ([4]; Postemergence, 62 g ai/ha)?
Answer: 70

Question: What about the “Plant response rating, Crabgrass, Large” value ([4]; Postemergence, 125 g ai/ha) of the same compound?
Answer: 80

Question: And the “Plant response rating, Crabgrass, Large” value ([4]; Preemergence, 31 g ai/ha)?
Answer: 60

Question: And the “Plant response rating, Crabgrass, Large” value ([4]; Preemergence, 61 g ai/ha)?
Answer: 60

Question: And the “Plant response rating, Crabgrass, Large” value ([4]; Preemergence, 62 g ai/ha)?
Answer: 95

Question: What about the “Plant response rating, Crabgrass, Large” value ([4]; Preemergence, 125 g ai/ha) of the same compound?
Answer: 100

Question: And the “Plant response rating, Galium” value ([5]; Postemergence, 16 g ai/ha)?
Answer: 95

Question: What about the “Plant response rating, Galium” value ([5]; Postemergence, 31 g ai/ha) of the same compound?
Answer: 95

Question: What about the “Plant response rating, Galium” value ([5]; Postemergence, 62 g ai/ha) of the same compound?
Answer: 95

Question: What about the “Plant response rating, Galium” value ([5]; Postemergence, 125 g ai/ha) of the same compound?
Answer: 95

Question: And the “Plant response rating, Galium” value ([5]; Preemergence, 31 g ai/ha)?
Answer: 100

Question: What about the “Plant response rating, Galium” value ([5]; Preemergence, 61 g ai/ha) of the same compound?
Answer: 98

Question: And the “Plant response rating, Galium” value ([5]; Preemergence, 62 g ai/ha)?
Answer: 100

Question: And the “Plant response rating, Galium” value ([5]; Preemergence, 125 g ai/ha)?
Answer: 100

Question: And the “Plant response rating, Johnsongrass” value ([6]; Postemergence, 16 g ai/ha)?
Answer: 5

Question: What about the “Plant response rating, Johnsongrass” value ([6]; Postemergence, 31 g ai/ha) of the same compound?
Answer: 10

Question: What about the “Plant response rating, Johnsongrass” value ([6]; Postemergence, 62 g ai/ha) of the same compound?
Answer: 30

Question: And the “Plant response rating, Johnsongrass” value ([6]; Postemergence, 125 g ai/ha)?
Answer: 35

Question: And the “Plant response rating, Johnsongrass” value ([6]; Preemergence, 31 g ai/ha)?
Answer: 40

Question: And the “Plant response rating, Johnsongrass” value ([6]; Preemergence, 61 g ai/ha)?
Answer: 35

Question: And the “Plant response rating, Johnsongrass” value ([6]; Preemergence, 62 g ai/ha)?
Answer: 30

Question: What about the “Plant response rating, Johnsongrass” value ([6]; Preemergence, 125 g ai/ha) of the same compound?
Answer: 65

Question: And the “Plant response rating, Lambsquarters” value ([7]; Postemergence, 16 g ai/ha)?
Answer: 75

Question: And the “Plant response rating, Lambsquarters” value ([7]; Postemergence, 31 g ai/ha)?
Answer: 90

Question: And the “Plant response rating, Lambsquarters” value ([7]; Postemergence, 62 g ai/ha)?
Answer: 95

Question: What about the “Plant response rating, Lambsquarters” value ([7]; Postemergence, 125 g ai/ha) of the same compound?
Answer: 95

Question: What about the “Plant response rating, Lambsquarters” value ([7]; Preemergence, 31 g ai/ha) of the same compound?
Answer: 75

Question: And the “Plant response rating, Lambsquarters” value ([7]; Preemergence, 61 g ai/ha)?
Answer: 80

Question: And the “Plant response rating, Lambsquarters” value ([7]; Preemergence, 62 g ai/ha)?
Answer: 100

Question: And the “Plant response rating, Lambsquarters” value ([7]; Preemergence, 125 g ai/ha)?
Answer: 100

Question: What about the “Plant response rating, Morningglory” value ([8]; Postemergence, 16 g ai/ha) of the same compound?
Answer: 100

Question: And the “Plant response rating, Morningglory” value ([8]; Postemergence, 31 g ai/ha)?
Answer: 100

Question: What about the “Plant response rating, Morningglory” value ([8]; Postemergence, 62 g ai/ha) of the same compound?
Answer: 100

Question: And the “Plant response rating, Morningglory” value ([8]; Postemergence, 125 g ai/ha)?
Answer: 100

Question: And the “Plant response rating, Morningglory” value ([8]; Preemergence, 31 g ai/ha)?
Answer: 85

Question: What about the “Plant response rating, Morningglory” value ([8]; Preemergence, 61 g ai/ha) of the same compound?
Answer: 70

Question: What about the “Plant response rating, Morningglory” value ([8]; Preemergence, 62 g ai/ha) of the same compound?
Answer: 95

Question: And the “Plant response rating, Morningglory” value ([8]; Preemergence, 125 g ai/ha)?
Answer: 95

Question: What about the “Plant response rating, Oilseed Rape” value ([9]; Postemergence, 16 g ai/ha) of the same compound?
Answer: 0

Question: What about the “Plant response rating, Oilseed Rape” value ([9]; Postemergence, 31 g ai/ha) of the same compound?
Answer: 0

Question: What about the “Plant response rating, Oilseed Rape” value ([9]; Postemergence, 62 g ai/ha) of the same compound?
Answer: 0

Question: What about the “Plant response rating, Oilseed Rape” value ([9]; Postemergence, 125 g ai/ha) of the same compound?
Answer: 0

Question: What about the “Plant response rating, Oilseed Rape” value ([9]; Preemergence, 31 g ai/ha) of the same compound?
Answer: 0

Question: What about the “Plant response rating, Oilseed Rape” value ([9]; Preemergence, 61 g ai/ha) of the same compound?
Answer: 0

Question: And the “Plant response rating, Oilseed Rape” value ([9]; Preemergence, 62 g ai/ha)?
Answer: 0

Question: What about the “Plant response rating, Oilseed Rape” value ([9]; Preemergence, 125 g ai/ha) of the same compound?
Answer: 0

Question: And the “Plant response rating, Ragweed” value ([10]; Postemergence, 16 g ai/ha)?
Answer: 85

Question: And the “Plant response rating, Ragweed” value ([10]; Postemergence, 31 g ai/ha)?
Answer: 90

Question: What about the “Plant response rating, Ragweed” value ([10]; Postemergence, 62 g ai/ha) of the same compound?
Answer: 95

Question: And the “Plant response rating, Ragweed” value ([10]; Postemergence, 125 g ai/ha)?
Answer: 98

Question: What about the “Plant response rating, Ragweed” value ([10]; Preemergence, 31 g ai/ha) of the same compound?
Answer: 100

Question: What about the “Plant response rating, Ragweed” value ([10]; Preemergence, 61 g ai/ha) of the same compound?
Answer: 65

Question: What about the “Plant response rating, Ragweed” value ([10]; Preemergence, 62 g ai/ha) of the same compound?
Answer: 100

Question: What about the “Plant response rating, Ragweed” value ([10]; Preemergence, 125 g ai/ha) of the same compound?
Answer: 100

Question: And the “Plant response rating, Soybean” value ([11]; Postemergence, 16 g ai/ha)?
Answer: 0

Question: And the “Plant response rating, Soybean” value ([11]; Postemergence, 31 g ai/ha)?
Answer: 10

Question: What about the “Plant response rating, Soybean” value ([11]; Postemergence, 62 g ai/ha) of the same compound?
Answer: 10

Question: And the “Plant response rating, Soybean” value ([11]; Postemergence, 125 g ai/ha)?
Answer: 20

Question: And the “Plant response rating, Soybean” value ([11]; Preemergence, 31 g ai/ha)?
Answer: 0

Question: What about the “Plant response rating, Soybean” value ([11]; Preemergence, 61 g ai/ha) of the same compound?
Answer: 0

Question: What about the “Plant response rating, Soybean” value ([11]; Preemergence, 62 g ai/ha) of the same compound?
Answer: 20

Question: And the “Plant response rating, Soybean” value ([11]; Preemergence, 125 g ai/ha)?
Answer: 60

Reference: patent publication US12435044B2, “Pyridazinone herbicides and pyridazinone intermediates used to prepare a herbicide” (FMC Corporation, priority 2018, dated 2025)
